Reference: patent US7358091B2, “Device and methods for identifying and treating aspirin non-responsive patients” (Portola Pharmaceuticals, Inc., priority 2004, dated 2008)
One block for each compound: values may come before it. Bridge positions count the residues as written; N and C are the ends. Square brackets hold non-standard residues; d marks the D form. Peptide text beside a SMILES is read from it. hArg = N=C(N)NCCCC[C@H](N)C(=O)O; Mpa = O=C(O)CCS

What was measured:
[1] = test system: P2Y12-deficient mice
Excerpt: This phenotype is rescued by the injection of epinephrine in vivo (Andre, P. et al., J Clin Invest, 112(3):398-406 (2003)).

[2] = test system: P2Y12-deficient mice; settings: injection of epinephrine in vivo; cited from earlier work
[3] = test system: aggregation induced by ADP; assay: Aggregation induced by ADP; format: cell-based; settings: 100 μM
[4] = test system: preformed thrombi on collagen coated surface; assay: Real time thrombosis perfusion chamber assay, destabilization of preformed thrombi; format: cell-based; settings: for effect on preformed thrombi, aspirin background: aspirinated blood over preformed aspirinated thrombi; for mean slope after first perfusion (mSAFP), aspirin background: aspirinated blood, aspirin alone = saline control, eptifibatide; for mean slope after first perfusion (mSAFP), aspirin background / mean slope after first perfusion (mSAFP): 2-MeSAMP 100 μM; for mean slope after first perfusion (mSAFP): untreated blood 210 seconds at 1500/sec, then blood treated with agent, eptifibatide 2.4 μM, Ifetroban 0.3 μM; for effect on preformed thrombi: untreated blood background, second perfusion with agent
Protocol: Evaluation of the ability of thromboxane receptor (TP) antagonists to destabilize preformed thrombi was performed as followed in the real time thrombosis perfusion chamber assay (monitoring of fluorescently labeled platelets onto collagen coated surface). Untreated samples of blood were first perfused through the collagen-coated perfusion chamber for 210 seconds at 1500/sec. […] In order to evaluate a possible role for PGD2 in mediating thrombus destabilization, aspirinated blood was perfused in presence of PDG2 over preformed aspirinated thrombi.

[5] = test system: patients; settings: human, in vivo; cited from earlier work
[6] = test system: platelet aggregation; assay: Ultegra RPFA-ASA assay in whole blood; format: cell-based, human; settings: aspirin 275 μM added to the blood in vitro; all 5 blood donors; compared with 50% inhibition of P2Y12
Protocol: Whole blood was drawn into 3.2% Sodium citrate vacuum tubes and analyzed using the Ultegra RPFA-ASA assay. Sample results are based on the extent of platelet aggregation, reported in Aspirin Reaction Units (ARU). ARU≥250 is consistent with no platelet dysfunction, ARU<550 is consistent with platelet dysfunction due to aspirin.
The effects of aspirin (275 μM added to the blood in vitro) and 50% inhibition of P2Y12 (corresponding to the extent of inhibition achieved in patients under PLAVIX (clopidogrel bisulfate) treatment) were evaluated in the RPFA-ASA (n=5). A direct P2Y12 antagonist (5-chloro-N-[({4-[7-fluoro-6-(methylamino)-1-oxoisoquinolin-2(1H)-yl]phenyl}amino)carbonyl]thiophene-2-sulfonamide) is used in vitro at a concentration that inhibits 50% of ADP-induced platelet aggregation in PRP as PLAVIX (clopidogrel bisulfate) cannot be used in vitro (it needs to be metabolized by the liver to generate the active metabolite).

[7] = test system: platelet function under high shear stress; assay: PFA-100 closure time, CEpi and CADP cartridges; format: cell-based, human; settings: 325 mg/d ASA for 3 days
Excerpt: Whole blood was drawn into 3.8% Sodium citrate vacuum tubes and analyzed using the Platelet Function Analyzer (PFA-100). Sample results are based on the platelet function under high shear stress. Platelet adhesion and aggregation are triggered by a biologically active membrane coated with collagen and either epinephrine (EPI) or ADP. Platelets exposed to EPI or ADP under flow conditions are activated on the collagen surface. The time required to full occlusion of an aperture cut in the membrane defines the “closure time” (CT).
(§1) The effects of aspirin (normal volunteers were drug free for 2 weeks prior to 325 mg/d ASA for 3 days) and 50% inhibition of P2Y12 on arachidonic acid-induced platelet aggregation in PRP, TxB2 generation, PFA-100 with both Collagen/Epinephrine (CEpi) and Collagen/ADP (CADP) cartridges were evaluated. Arachidonic acid-induced platelet aggregation and TxB2 generation were abolished by aspirin treatment compared with baseline for all 5 donors. […] All donors gave the expected prolongation of the CEpi cartridge after aspirin treatment. In addition, 2 out of 5 donors presented unusual phenotypes (FIG. 6). In donor 1, aspirin increased the CADP closure time, whereas in donor 2, P2Y12 antagonism increased closure time of the CEpi cartridge above the limit defined by the manufacturer for aspirin effect.

[8] = test system: mixed platelet/leukocyte aggregates; assay: Arachidonic acid-/shear-induced platelet aggregation assay in whole blood; format: cell-based; settings: 0.8 mM arachidonic acid, 1700/sec followed by 80/sec
Protocol: FIG. 10 is a schematic representation of the AA/shear-induced thrombotic process utilized in our preliminary study. AA (0.8 mM) is added to citrate-anticoagulated blood (37° C. incubation time=1 minute) then perfused via a silastic tubing to a stenosis (high shear rate, 1700/sec: Hγ) followed by a low shear rate area (80/sec: Lγ). Observation of the mixed platelet/leukocyte aggregates is performed under UV at 10× magnification using a fluorescent microscope.
Platelets are labeled in whole blood with Rhodamine 6G as described above. Following addition of AA, blood will be perfused through 2 successive chambers which generate high (1500/sec) and low (50/sec) shear rates. The high shear rate induces platelet activation and aggregation is created by a sudden decrease in capillary diameter. The low shear rate area allows for the real time evaluation/quantification of the size of the platelet/platelet, platelet/leukocyte aggregates that will pass and/or adhere via the Simple PCI software or similar software capable of evaluating the size of the flowing thrombi.
Large mixed platelet/leukocyte aggregates are detectable in the low shear area (observable after less than 30 seconds) when whole blood is treated with 0.8 mM arachidonic acid and perfusion through a small uncoated circular capillary at 1700/sec followed by a larger capillary at 80/sec. […]

[9] = test system: thrombotic process on collagen; assay: Fibrillar type III collagen-coated capillary perfusion chamber at arterial shear rates; format: cell-based, human
Protocol: In one example of the perfusion chamber assay of the invention, the assay enables the investigator to evaluate thrombotic process under arterial shear rates in less than 15 minutes after blood draw. The simplicity of the perfusion chamber allows for multiple parallel experiments as the thrombogenic surface is deposited inside a regular glass capillary tube. The system is easy to use as only 2 tubings are needed: a proximal tubing to connect the blood sample to the capillary, and a distal tubing which connects the capillary to the pump. A limited amount of blood is required to reconstitute arterial shear rate conditions (4 ml of blood for 1 perfusion chamber). […]
At the end of the perfusion, the capillary is rinsed for 20 sec and fixed with 2.5% phosphate buffered glutaraldehyde for 1 minute. […] An En Face picture located 5 mm downstream of the proximal part of the capillary is taken, and the grey level of each thrombus or platelets located in a window 400 μm long×400 μm wide is measured (Simple PCI software, Compix Inc. Imaging System). Thrombotic deposits were then embedded in Epon, subsequently cross sectioned (at the same location used for measurement of the grey level) and their mean thrombus volume determined. […]

[10] = test system: platelet aggregation in PRP; assay: Arachidonic acid-induced platelet aggregation in PRP; format: cell-based, human; settings: 325 mg/d ASA for 3 days, compared with baseline, all 5 donors
Protocol: as §1

[11] = test system: TxB2 generation; assay: TxB2 generation; format: cell-based, human; settings: 325 mg/d ASA for 3 days, compared with baseline, all 5 donors
Protocol: as §1

[12] = test system: thrombotic deposits on type III collagen; assay: Perfusion chamber assay on type III collagen at 1000/sec, end-point grey level; format: cell-based, human; settings: citrate blood, 2 donors before and after aspirin 325 mg/d for 3 days, DMSO-treated and P2Y12 antagonism+epinephrine-treated blood
Protocol: (§2) FIG. 9 is a representation of the thrombotic deposits formed on type III collagen at 1000/sec in the rectangular perfusion chamber in 2 blood donors, before and after aspirin uptake (325 mg/d for 3 days). Anticoagulated blood (citrate 3.8%, 1:9 v of blood) is collected and added into 5 ml tubes containing either DMSO (vehicle control for the P2Y12 antagonist), a direct P2Y12 antagonist at 5 μM (which totally block the receptor), or a direct P2Y12 antagonist at 5 μM in presence of 20 μM Epinephrine. Anticoagulated blood is perfused through a rectangular capillary (0.2×2 mm, Vitrocom) coated with fibrillar type III collagen at 1000/sec for 4 minutes. Thrombotic deposits are then rinsed for 15 seconds with buffer “C”, fixed for 1 minute in phosphate-buffered glutaraldehyde (2.5%), stained for 45 sec in toluidine blue. Picture is taken at 5 mm from the proximal part of the chamber, and measurement of the grey level performed with Prism software.
A perfusion chamber assay on type III collagen (DMSO (vehicle) treated (a), full P2Y12 antagonism (b), full P2Y12 antagonism with epinephrine 20 μM(c)) have been performed before and 3 days after a daily dose of aspirin (325 mg).

[13] = biological target: T1, P2Y12 receptor (Homo sapiens, UniProt Q9H244); assay: P2Y12 receptor blockade in vitro in whole blood; format: cell-based; settings: 5 μM
T1 construct: endogenous in cells; host or cells: platelets in citrate-anticoagulated whole blood of blood donors
Protocol: as §2
Most ACS patients eligible for percutaneous coronary intervention (PCI) are under PLAVIX (clopidogrel bisulfate) therapy. […]

[14] = test system: thrombus formation on type III collagen; assay: Real time collagen-coated perfusion chamber, kinetics of thrombus formation; format: cell-based, human; settings: 2.5 μM, PPACK-anticoagulated blood, collagen type III-coated capillary
Protocol: Phe-Pro-Arg-chloromethylketone (PPACK)-anticoagulated blood is added to a tube containing Rhodamine 6-glucose (Rhodamine 6G) (0.2 mg/ml). Five minutes later, blood is perfused through a rectangular capillary mounted on the stage of an inverted microscope (under ultraviolet (UV) light (Rhodamine filter) platelets appear fluorescent). As the blood flows on the collagen type III-coated capillary chamber, platelets adhere and start building a thrombus. Two frames per second are recorded and analyzed for mean fluorescent intensity for the entire perfusion period. At the end of the perfusion, standard deviation in light intensity is plotted against the time by the Prism software.
After blood collection into either citrate or PPACK (4 ml are needed per perfusion chamber) Rhodamine 6G (0.2 mg/mL) is added to the blood and incubated at 37° C. for 5 minutes. Collagen-coated rectangular glass capillaries (Vitrocom) are mounted on the stage of a fluorescent microscope and illuminated under light, UV, or both. […] Platelet collagen interactions and thrombus formation are recorded in real time with the Simple PCI software. The mean fluorescence intensity parallels the kinetics of the thrombotic process, because all platelets are labeled by rhodamine 6G. The kinetics of the thrombotic process is recorded at 2 frames per second for 5 minutes and plotted versus time.

T1 sequence (Q9H244 whole entry): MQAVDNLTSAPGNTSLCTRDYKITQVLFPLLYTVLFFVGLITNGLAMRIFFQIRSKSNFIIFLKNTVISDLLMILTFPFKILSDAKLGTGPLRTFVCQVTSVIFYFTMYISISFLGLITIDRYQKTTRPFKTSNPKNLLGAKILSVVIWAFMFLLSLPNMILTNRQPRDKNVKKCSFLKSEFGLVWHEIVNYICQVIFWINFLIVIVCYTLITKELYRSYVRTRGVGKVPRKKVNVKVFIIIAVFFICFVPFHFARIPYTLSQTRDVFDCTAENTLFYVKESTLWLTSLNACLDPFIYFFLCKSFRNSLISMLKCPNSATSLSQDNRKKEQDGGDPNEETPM

Structure (SMILES): CNC[C@H](O)c1ccc(O)c(O)c1 [epinephrine]
- phenotype of P2Y12-deficient mice in a collagen-coated perfusion chamber [1]: correct the phenotype
- protection of P2Y12-deficient mice from vascular occlusion after FeCl3 injury [2]: rescued

Structure (SMILES): CSc1nc(N)c2ncn([C@@H]3O[C@H](COP(=O)(O)O)[C@@H](O)[C@H]3O)c2n1 [2-MeSAMP]
- aggregation induced by ADP [3]: totally blocks
- effect on preformed thrombi, aspirin background [4]: sudden dethrombosis
- mean slope after first perfusion (mSAFP), aspirin background [4]: −4.1±0.7
- mean slope after first perfusion (mSAFP) [4]: −1.8±0.2
- effect on preformed thrombi [4]: marked dethrombosis

Structure (SMILES): CCCCCNC(=O)c1coc([C@H]2[C@@H](Cc3ccccc3CCC(=O)O)[C@@H]3CC[C@H]2O3)n1 [Ifetroban]
- effect on preformed thrombi, aspirin background [4]: abolished the destabilization effects
- mean slope after first perfusion (mSAFP) [4]: −2.5±0.6

Structure (SMILES): CCCCC[C@H](O)/C=C/[C@H]1C(=O)C[C@H](O)[C@@H]1C/C=C\CCCC(=O)O [PDG2, PGD2]
- effect on preformed thrombi, aspirin background [4]: significant, spontaneous reversal of thrombosis

Structure (SMILES): CC(=O)Oc1ccccc1C(=O)O [aspirin]
- patients with aspirin-induced asthma [5]: ≤ 20%
- reduction of post-acute myocardial infarction (AMI) cardiovascular events [5]: 25-30%
- reduction of the incidence of AMI in the acute phase of unstable angina [5]: up to 25%
- aspirin effects in RPFA-ASA (Aspirin Reaction Units) [6]: smaller than that obtained with 50% inhibition of P2Y12
- PFA-100 closure time, CEpi cartridge ([7]; all donors): prolongation
- PFA-100 closure time, CADP cartridge ([7]; donor 1 (unusual phenotype)): increased
- large mixed platelet/leukocyte aggregates in the low shear area [8]: prevented
- antithrombotic effects on collagen in combination with P2Y12 inhibitors [9]: synergize
- arachidonic acid-induced platelet aggregation in PRP [10]: abolished
- TxB2 generation [11]: abolished
- thrombotic deposits formed on type III collagen (grey level) [12]: aspirin effect is observed
- effect on preformed thrombi, aspirin background [4]: slow and moderate destabilization
- mean slope after first perfusion (mSAFP), aspirin background [4]: −1.07±0.3

- blockade of the P2Y12 receptor [13]: full blockade
Structure (SMILES): CNc1cc2ccn(-c3ccc(NC(=O)NS(=O)(=O)c4ccc(Cl)s4)cc3)c(=O)c2cc1F [5-chloro-N-[({4-[7-fluoro-6-(methylamino)-1-oxoisoquinolin-2(1H)-yl]phenyl}amino)carbonyl]thiophene-2-sulfonamide]

Structure (SMILES): N=C(N)NCCCC[C@@H]1NC(=O)CCSSC[C@@H](C(N)=O)NC(=O)[C@@H]2CCCN2C(=O)[C@H](Cc2c[nH]c3ccccc23)NC(=O)[C@H](CC(=O)O)NC(=O)CNC1=O [eptifibatide] ([Mpa][hArg]GDWPC-NH2; disulfide 1-7)
- effect on preformed thrombi, aspirin background [4]: sudden dethrombosis
- mean slope after first perfusion (mSAFP), aspirin background [4]: −2.6±0.9
- mean slope after first perfusion (mSAFP) [4]: 0.17±0.22
- effect on preformed thrombi [4]: no apparent destabilization
- thrombotic profile (real time kinetics of thrombus formation) [14]: flat curve

Structure (SMILES): CC(C)(C)N/C(=N\C#N)Nc1cccc(/C(=C\CCCC(=O)O)c2cccnc2)c1 [Terbogrel]
- large mixed platelet/leukocyte aggregates in the low shear area [8]: prevented
